Measured values taken from US8633212B2, “Inhibitors of beta-secretase” (Vitae Pharmaceuticals, Inc., priority 2009, dated 2014).

biological target: H4 neuroglioma cell line stably expressing APP with the KM-NL Swedish mutation (H4-APPsw); soluble Amyloid Beta 1-40 (Aβ 1-40) (Homo sapiens (Human), UniProt P56817); assay: BACE cell assay: soluble Aβ 1-40 in culture media of H4-APPsw cells (AlphaLISA/ELISA); assay type: cell-based; conditions: in vitro cell activity; H4-APPsw cells treated overnight, secreted Aβ 1-40 in culture media
Sequence (P56817 46-501 limits assumed, change not shown): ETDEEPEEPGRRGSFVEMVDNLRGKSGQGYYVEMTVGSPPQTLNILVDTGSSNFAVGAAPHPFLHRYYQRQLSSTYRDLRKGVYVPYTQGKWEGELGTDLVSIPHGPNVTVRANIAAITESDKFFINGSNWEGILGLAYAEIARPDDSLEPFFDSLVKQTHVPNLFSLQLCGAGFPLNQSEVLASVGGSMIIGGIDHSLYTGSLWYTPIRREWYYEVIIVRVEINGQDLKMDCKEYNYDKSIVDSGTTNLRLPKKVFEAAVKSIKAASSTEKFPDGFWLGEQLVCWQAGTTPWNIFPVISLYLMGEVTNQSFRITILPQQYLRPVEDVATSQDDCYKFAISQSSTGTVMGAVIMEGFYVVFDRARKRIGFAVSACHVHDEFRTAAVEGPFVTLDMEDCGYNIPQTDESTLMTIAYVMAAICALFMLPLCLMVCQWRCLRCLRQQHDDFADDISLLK
Experimental: H4 neuroglioma cell line that stably expresses Amyloid Precursor Protein (APP) containing the KM-NL Swedish mutation (H4-APPsw) was generated. For the assay, cells are treated overnight in the presence of inhibitor and the culture media are subjected to ELISA analysis of soluble Amyloid Beta 1-40 (Aβ 1-40).
Generation and Maintenance of H4-APPsw Cell Line
H4 neuroglioma cell line was cultured in DMEM with 10% FBS and 1% penicillin/streptomycin (Culture Medium) at 37° C., 5% CO2. […] 24 hrs after transfection, the cells were replaced into three new plates (150 mm) in fresh Culture Medium with 250 ug/mL Zeocin. […] The levels of APPsw expression were analyzed by immunoblotting and the production of Aβ 1-40 was detected by ELISA of culture supernatants. The selected clones are maintained in Culture Medium with 250 μg/mL Zeocin and routinely split in 3-4 days to maintain 20-80% confluence.
Final Assay Conditions (96-Well Plate)
Split H4-APPsw cells in Culture Medium and culture overnight such that cells will be ˜80% confluent next morning.
Create Compound Dilution Plate.
After determining the desired final concentration of compound to be tested, create a 500× dilution plate. Add DMSO, but not inhibitor, to each well of Column 1. […] Add compounds of interest at 500× desired final concentration to wells A3-A10. […] Dilute contents of Row A 1:3 in Row B, then continue through Rows C-H.
Add 4 μL 5 mM control compound to Media Plate wells A1-D1 for determination of full inhibition.
With a multichannel pipettor, mix each well of Media Plate several times to insure homogeneity. […] Next, place Medium Plate and Cell Plate in the incubator.
Trypsinize and count H4-APPsw cells. Dilute cells 6×10^5 cells/mL in Culture Medium and remove Cell Plate from incubator. Vortex cells to homogeneity, then using a multichannel repeating pipettor, add 100 μL cell suspension to Cell Plate, adding cells from Row H to Row A. Place Cell Plate in incubator.
Change media in Cell Plate.
After 5 h, check Cell Plate by microscope to insure cells are attached. In culture hood, remove media from Cell Plate using multichannel repeating pipettor. Add 100 μl Culture Medium to each well. Remove Media Plate from incubator and mix with pipettor as previous. Add 100 μl from each well of Media Plate to corresponding well in Cell Plate. Place Cell Plate in incubator overnight.
Perform ELISA to determine levels of secreted Aβ 1-40.
After 16 h incubation, spin Cell Plate for 8 min at 1200 rpm. The primary reading of Aβ 1-40 levels is done using PerkinElmer AlphaLISA technology. Follow the manufacturer's protocol for performing AlphaLISA in a white ½ area Optiwell plate using Row 12 for peptide standard (1:2 dilutions, starting at 15 ng/ml). Data are acquired using PerkinElmer Fusion-Alpha FP-HT, Alpha protocol (Count Time 0.6s, Count Time Ratio 30%:70%).
Export data from Fusion using Columnar Report format into a separate file for each plate. Upload data into Activity Base using RIA-DOSE-RESPONSE protocol (Version 1). Data from at least eight doses were fitted to a four parameter logistical model using XLfit software to determine potency.

| SMILES | IC50 [µM] |
| --- | --- |
| CN1C(=O)C2(N=C1N)c1cc(-c3cccc(C#N)c3)ccc1CC21CCc2ccccc2CC1 (stereo not drawn) [Compound 29] | < 0.5 |
| CN1OC2(N=C1N)c1cc(-c3cccc(C#N)c3)ccc1CC21CCc2cc(F)ccc2C1 (stereo not drawn) [Compound 43] | < 5 |
| CO[C@H]1CC2(Cc3ccc(-c4cccc(C#N)c4)cc3C23N=C(N)N(C)O3)C[C@H]1OC (stereo partly drawn) [Compound 57] | < 5 |
| CN1OC2(N=C1N)c1cc(Br)ccc1CC21CCc2ccccc2CC1 (stereo not drawn) [Compound 31] | < 5 |
| CO[C@H]1CC[C@]2(CC1)Cc1ccc(-c3cccc(C#N)c3)cc1C21CC(=O)N(C)C(N)=N1 (stereo partly drawn) [Compound 58, 3-(2″-amino-1′″-methyl-6″-oxo-5″,6″-dihydro-1″H-spiro[spiro[2,3-dihydro-indene-2,1′-(trans-4-methoxycyclohexane)]-1,4′-pyrimidine]-6-yl)benzonitrile] | < 0.1 |
| COC1CCC2(CC1)Cc1ccc(-c3cccnc3)cc1C21CC(=O)N(C)C(N)=N1 (stereo not drawn) [Compound 59, 2″-amino-1′″-methyl-6-(pyridin-3-yl)-1″H-spiro[spiro[2,3-dihydro-indene-2,1′-(trans-4-methoxycyclohexane)]-1,4′-pyrimidin]-6″(5″H)-one] | < 0.5 |
| CN1OC2(N=C1N)c1ccccc1CC21CCc2ccccc2CC1 (stereo not drawn) [Compound 35] | < 1 |
| CN1C(=O)C2(N=C1N)c1cc(Br)ccc1CC21CCc2ccccc2CC1 (stereo not drawn) [Compound 56] | < 5 |
| CN1C(=O)C2(N=C1N)c1cc(-c3cc(F)cc(Cl)c3)ccc1CC21CCc2ccccc2CC1 (stereo not drawn) [Compound 26] | < 5 |
| CN1OC2(N=C1N)c1cc(-c3cccc(C#N)c3)ccc1CC21C=CC(c2ccccc2)C1 (stereo not drawn) [Compound 53] | < 50 |

biological target: truncated human beta-secretase (residues 1-458, His6-tagged at the C-terminus) (Homo sapiens (Human), UniProt P56817); assay: BACE enzyme assay (fluorescence quench assay, Example 434A); assay type: biochemical; conditions: not given
Sequence (P56817 22-458): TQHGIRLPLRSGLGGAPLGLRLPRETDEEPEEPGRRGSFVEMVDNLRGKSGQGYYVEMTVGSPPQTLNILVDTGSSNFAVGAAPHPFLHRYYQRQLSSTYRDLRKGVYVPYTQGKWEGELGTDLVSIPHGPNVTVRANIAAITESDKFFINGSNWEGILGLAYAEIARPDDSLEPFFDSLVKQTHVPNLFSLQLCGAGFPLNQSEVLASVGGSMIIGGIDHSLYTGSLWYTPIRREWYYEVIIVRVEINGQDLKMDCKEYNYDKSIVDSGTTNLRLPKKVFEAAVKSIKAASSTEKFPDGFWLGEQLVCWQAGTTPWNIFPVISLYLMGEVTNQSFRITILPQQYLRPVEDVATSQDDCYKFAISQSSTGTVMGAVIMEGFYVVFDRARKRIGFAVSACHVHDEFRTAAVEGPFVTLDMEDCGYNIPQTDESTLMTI

| SMILES | IC50 [µM] |
| --- | --- |
| CN1OC2(N=C1N)c1cc(C#CC3CC3)ccc1CC21CCC(OC(F)F)CC1 (stereo not drawn) [Compound 99] | 0.0024 |

same assay, conditions: footnote a: protocols described in Example 434A; read-out: IC50

| SMILES | IC50 [µM] |
| --- | --- |
| CN1C(=O)C2(N=C1N)c1cc(C#CC3CC3)ccc1CC21CCC(O)CC1 (stereo not drawn) [Compound 151] | 0.207 |
| CO[C@H]1CC[C@@]2(CC1)Cc1ccc(-c3cccc(C#N)c3)cc1C21CC(=O)N(C)C(N)=N1 (stereo partly drawn) [Compound 65] | 50 |
| COC1CCC2(CC1)Cc1ccc(C3=CC(O)CC3)cc1C21N=C(N)N(C)C1=O (stereo not drawn) [Compound 476] | 0.0331 |
| COC1CCC2(CC1)Cc1ccc(-c3cnccn3)cc1C21N=C(N)N(C)O1 (stereo not drawn) [Compound 109] | 0.0236 |
| CN1OC2(N=C1N)c1cc(-c3ccnnc3)ccc1CC21CCc2ccccc2CC1 (stereo not drawn) [Compound 122] | 0.0425 |
| CN1OC2(N=C1N)c1cc(C#CC3CC3)ccc1CC21CCc2ccccc2CC1 (stereo not drawn) [Compound 105] | 0.0084 |
| COC1CCC2(CC1)Cc1ccc(-c3ccc4cc[nH]c4c3)cc1C21N=C(N)N(C)O1 (stereo not drawn) [Compound 37] | 0.126 |
| COC1CCC2(CC1)Cc1ccc(C#CC(C)(C)C)cc1C21N=C(N)N(C)O1 (stereo not drawn) [Compound 113] | 0.0246 |
| CO[C@H]1CC2(Cc3ccc(-c4cccc(C#N)c4)cc3C23N=C(N)N(C)O3)C[C@H]1OC (stereo partly drawn) [Compound 57] | 0.936 |
| CN1OC2(N=C1N)c1cc(-c3cccc(C#N)c3)ccc1CC21CCc2cnncc2CC1 (stereo not drawn) [Compound 456] | 0.877 |
| CN1C(=O)C2(N=C1N)c1cc(C#CC3CC3)ccc1CC21CCC(O)CC1 (stereo not drawn) [Compound 150] | 0.003 |
| CN1OC2(N=C1N)c1cc(-c3cccc(C#N)c3)ccc1CCC21CCc2ccccc2CC1 (stereo not drawn) [Compound 63] | 5.05 |
| CN1OC2(N=C1N)c1cc(-c3cccc(C#N)c3)ccc1CC21Cc2cccc3cccc(c23)C1 (stereo not drawn) [Compound 61] | 3.26 |
| CO[C@H]1CC[C@]2(CC1)Cc1c(F)cccc1C21N=C(N)N(C)C1=O (stereo partly drawn) [Compound 249] | 0.493 |
| Cc1ccc2c(c1)C1(N=C(N)N(C)O1)C1(CCc3ccccc3CC1)C2 (stereo not drawn) [Compound 104] | 0.255 |
| COC1CCC2(CC1)Cc1ccc(C#Cc3ccccc3)cc1C21N=C(N)N(C)O1 (stereo not drawn) [Compound 112] | 0.0804 |
| CCOC1CCC2(CC1)Cc1ccc(C#CC3CC3)cc1C21N=C(N)N(C)O1 (stereo not drawn) [Compound 24] | 0.021 |
| COC1CCC2(CC1)Cc1ccc(Br)cc1C21N=C(N)N(C)O1 (stereo not drawn) [Compound 95] | 0.137 |
| COC1CCC2(CC1)Cc1ccc(CCC3CC3)cc1C21N=C(N)N(C)O1 (stereo not drawn) [Compound 117] | 0.0174 |
| CCN1C(=O)C2(N=C1N)c1cc(C#CC3CC3)ccc1CC21CCC(OC)CC1 (stereo not drawn) [Compound 138] | 0.0156 |
| COC1CCC2(CC1)Cc1ccc(-c3cc(F)ccc3C)cc1C21N=C(N)N(C)O1 (stereo not drawn) [Compound 32] | 0.0741 |
| COC1CCC2(CC1)Cc1ccc(C#CC(F)(F)F)cc1C21N=C(N)N(C)O1 (stereo not drawn) [Compound 115] | 0.0037 |

| SMILES | IC50 [µM] |
| --- | --- |
| CN1OC2(CC3(CCOCC3)c3ccc(-c4cccc(C#N)c4)cc32)N=C1N (stereo not drawn) [Compound 69, 3-(spiro[spiro[2,3-dihydro-indene-3,1′-(4-oxacyclohexane)]-1,5′-(3-amino-2-methyl-2H-[1,2,4]oxadiazole)]-6-yl)benzonitrile] | 4.7 |
| CCOC1CCC2(CC1)Cc1ccc(-c3cccc(C#N)c3)cc1C21N=C(N)N(C)O1 (stereo not drawn) [Compound 82] | 0.432 |
| COC1CCC2(CC1)Oc1ccc(-c3cccc(C#N)c3)cc1C21N=C(N)N(C)O1 (stereo not drawn) [Compound 68] | 1.78 |
| COC1CCC2(CC1)Cc1ccc(C#CC3CC3)cc1C21N=C(N)N(Cc2ccccc2)C1=O (stereo not drawn) [Compound 142] | 0.002 |
| CO[C@H]1CC2(Cc3ccc(-c4cccc(C#N)c4)cc3C23N=C(N)N(C)O3)C[C@H]1OC (stereo partly drawn) [Compound 62] | 4.11 |
| CN1OC2(N=C1N)c1cc(Br)ccc1OC21CCc2ccccc2CC1 (stereo not drawn) [Compound 67] | 0.139 |
| COC1CCC2(CC1)Cc1ccc(C#CC3CC3)cc1C21N=C(N)NC1=O (stereo not drawn) [Compound 264] | 0.0292 |
| Cc1onc2c1CC1(CC2)Cc2ccc(C#CC3CC3)cc2C12N=C(N)N(C)O2 (stereo not drawn) [Compound 468] | 0.0167 |
| Cc1onc2c1CC1(CC2)Cc2ccc(C#CC3CC3)cc2C12N=C(N)N(C)C2=O (stereo not drawn) [Compound 467] | 0.0028 |
| CN1OC2(N=C1N)c1cc(-c3cccc(C#N)c3)ccc1CC21CCOCC1 (stereo not drawn) [Compound 51, 3-(spiro[spiro[2,3-dihydro-indene-2,1′-(4-oxacyclohexane)]-1,5′-(3-amino-2-methyl-2H-[1,2,4]oxadiazole)]-6-yl)benzonitrile] | 0.466 |
| COC1CCC2(CC1)Cc1ccc(C#CC3CC3)cc1[C@]21N=C(N)N(C)C1=O (stereo partly drawn) [Compound 478] | 0.0022 |
| COC1CCC2(CC1)Cc1ccc(-c3ccnnc3)cc1C21N=C(N)N(C)O1 (stereo not drawn) [Compound 108] | 0.156 |
| CN1OC2(N=C1N)c1cc(-c3cccc(C#N)c3)ccc1CC21CCC(NCC(F)(F)F)CC1 (stereo not drawn) [Compound 98] | 3.32 |
| COC1CCC2(CC1)Cc1ccc(C#CC3CCCC3)cc1C21N=C(N)N(C)O1 (stereo not drawn) [Compound 114] | 0.0097 |
| COC1CCC2(CC1)Cc1ccc(C#CC3CC3)cc1[C@@]21N=C(N)N(C)C1=O (stereo partly drawn) [Compound 477] | 0.694 |
| COC1CCC2(CC1)Cc1ccc(C#CC3CC3)cc1C21N=C(N)N(C)C1=O (stereo not drawn) [Compound 76] | 0.0021 |
| CN1OC2(N=C1N)c1cc(-c3cccc(C#N)c3)ccc1CC21CCC(OC(F)F)CC1 (stereo not drawn) [Compound 100] | 0.0047 |
| COC1CCC2(CC1)Cc1ccc(OCC3CC3)cc1C21N=C(N)N(C)O1 (stereo not drawn) [Compound 110] | 0.0146 |
| COC1CCC2(CC1)Cc1ccc(-c3cncs3)cc1C21N=C(N)N(C)O1 (stereo not drawn) [Compound 116] | 0.0767 |
| CN1OC2(N=C1N)c1cc(-c3cccc(C#N)c3)ccc1CC21CCC(NCC(F)(F)F)CC1 (stereo not drawn) [Compound 97] | 3.88 |
| Cc1onc2c1CC1(CC2)Cc2ccc(-c3cccnc3)cc2C12N=C(N)N(C)O2 (stereo not drawn) [Compound 451] | 0.0586 |
| COc1cncc(-c2ccc3c(c2)C2(N=C(N)N(C)O2)C2(CCC(OC)CC2)C3)n1 (stereo not drawn) [Compound 111] | 0.196 |

same assay, conditions: read-out: IC50

| SMILES | IC50 [µM] |
| --- | --- |
| CN1OC2(N=C1N)c1cc(-c3cccnn3)ccc1CC21CCc2ccccc2CC1 (stereo not drawn) [Compound 121] | 0.0562 |
| CN1OC2(N=C1N)c1cc(-c3cccc(C#N)c3)ccc1CC21CCc2cc(F)ccc2C1 (stereo not drawn) [Compound 43] | 0.178 |
| CN1OC2(N=C1N)c1cc(Br)ccc1CC21CCc2ccccc2CC1 (stereo not drawn) [Compound 31] | 0.064 |
| CO[C@H]1CC[C@]2(CC1)Cc1ccc(-c3cccc(C#N)c3)cc1C21CC(=O)N(C)C(N)=N1 (stereo partly drawn) [Compound 58, 3-(2″-amino-1′″-methyl-6″-oxo-5″,6″-dihydro-1″H-spiro[spiro[2,3-dihydro-indene-2,1′-(trans-4-methoxycyclohexane)]-1,4′-pyrimidine]-6-yl)benzonitrile] | 0.97 |
| COC1CCC2(CC1)Cc1ccc(-c3cccnc3)cc1C21CC(=O)N(C)C(N)=N1 (stereo not drawn) [Compound 59, 2″-amino-1′″-methyl-6-(pyridin-3-yl)-1″H-spiro[spiro[2,3-dihydro-indene-2,1′-(trans-4-methoxycyclohexane)]-1,4′-pyrimidin]-6″(5″H)-one] | 1.55 |
